Reference: patent US8178506B2, “Oligomeric compounds and compositions for use in modulation of small non-coding RNAs” (Regulus Therapeutics Inc., priority 2003, dated 2012)

Legend:
Format in all cases: cell-based, human
let-7d pri-miRNA = let-7d pri-miRNA expression in T-24 cells; conditions: 100 nM
Protocol: Using the transfection methods previously described, supra, T-24 cells were treated with 100 nM of the oligomeric compound ISIS Number 327926 (SEQ ID NO: 344) targeting the let-7d mature miRNA. Total RNA was isolated and expression levels of the let-7d pri-miRNA were analyzed by real-time quantitative RT-PCR using a primer/probe set specific for the let-7d pri-miRNA molecule (forward primer=ISIS 341678 (CCTAGGAAGAGGTAG TAGGTTGCA; herein incorporated as SEQ ID NO.: 771), reverse primer=ISIS 341679 ([…]; herein incorporated as SEQ ID NO.: 772), and probe=ISIS 341680 ([…]; herein incorporated as SEQ ID NO.: 773)).

mir-21 mature miRNA = assay: Northern blot of mature mir-21 in HeLa cells; conditions: 100 nM
Protocol: In one embodiment, the expression of mir-21 (noted to be expressed at high levels in HeLa cells) was assessed in cells treated with oligomeric compounds. Using the transfection methods previously described, HeLa cells were treated with 100 nM of the uniform 2′-MOE oligomeric compound ISIS Number 327917 (SEQ ID NO: 335) targeting the mir-21 mature miRNA. Total RNA was isolated by lysing cells in 1 mL TRIZOL™ (Invitrogen) using the manufacturer's recommended protocols. […] Real-time RT-PCR analysis was also performed on HeLa cells treated with ISIS 327917 using a primer/probe set specific for the mir-21 pri-miRNA molecule [forward primer=ISIS 339332 ([…]; herein incorporated as SEQ ID NO.: 911), reverse primer-ISIS 339333 (TCGACTGGTGTTGCCATGA; herein incorporated as SEQ ID NO.: 912), and probe=ISIS 339334 ([…]; herein incorporated as SEQ ID NO.: 913)]. Total RNA was quantified using RiboGreen™ RNA quantification reagent (Molecular Probes, Inc. Eugene, Oreg.), expression levels observed for the target were normalized to 5.8S rRNA, and values were expressed relative to an untreated control (UTC).

mir-21 miRNA = assay: pGL3-mir-21 sensor luciferase assay in HeLa cells
From the text: In order to assess the ability of miRNAs to bind predicted miRNA binding sites and regulate the expression of the luciferase reporter, in some embodiments, expression systems based on the pGL3-Control (Promega Corp., Madison Wis.) reporter vector and comprising either a mir-15a, mir-21, or a mir-23b miRNA binding site were developed and used in transient transfections of HeLa cells to determine whether the endogenous mir-15a, mir-21, or mir-23b miRNAs, respectively, could repress luciferase reporter gene expression.
The pGL3-mir-21 sensor plasmid was created by cloning the sequence ([…]; SEQ ID NO: 335), representing a sequence complementary to the mir-21 miRNA, into the Xba site of the pGL3-Control plasmid, placing the potential miRNA-binding site in the 3′UTR of the luciferase reporter. This reporter plasmid was used to transfect HeLa cells and it was observed that the endogenous mir-21 miRNA was able to inhibit luciferase expression from the pGL3-mir-21 sensor plasmid. Thus, to further evaluate the ability of the mir-21 miRNA to bind this target site encoded by the pGL3-mir-21 sensor plasmid, and to assess the ability of oligomeric compounds to interfere with mir-21-mediated silencing, pGL3-mir-21 sensor-expressing HeLa cells were treated with varying concentrations (10 nM or 50 nM) of the following oligomeric compounds: ISIS Number 327917 (SEQ ID NO: 335), a phosphorothioate uniform 2′-MOE oligomeric compound; ISIS Number 338697 ([…]; herein incorporated as SEQ ID NO: 524), a uniform 2′-MOE oligomeric compound targeting the mir-21 pri-miRNA molecule; and ISIS Number 328415 (SEQ ID NO: 524), a 2′-MOE 5-10-5 gapmer oligomeric compound targeting the mir-21 pri-miRNA. The uniform 2′-MOE phosphorothioate oligomeric compound ISIS Number 327901 (SEQ ID NO: 319) targeting an unrelated miRNA (mir-143) was used as a negative control. The data are the average of three trials and are presented in Table 44 as percent untreated control (luciferase plasmid only, not treated with oligomeric compound) luciferase expression, normalized to pRL-CMV levels.
In one embodiment, the oligomeric compounds ISIS Number 327917 (SEQ ID NO: 335), the phosphorothioate uniform 2′-MOE targeting mature mir-21; ISIS Number 358768 (SEQ ID NO: 918), the uniform 2′-MOE targeting the mir-21 pri-miRNA which stimulated the largest increase in pri-miRNA expression levels by real time quantitative RT-PCR; and ISIS Number 345382 (SEQ ID NO: 335), the 5-10-7 phosphorothioate 2′-MOE gapmer targeting mature mir-21 were selected for dose response studies in HeLa cells using the luciferase reporter system described in Example 27. ISIS Number 342683 (SEQ ID NO: 790), representing the scrambled nucleotide sequence of an unrelated PTP1B antisense oligonucleotide, was used as a negative control. HeLa cells expressing the pGL3-mir-21 sensor plasmid (described in Example 27) were treated with 1.9, 5.5, 16.7, and 50 nM of these oligomeric compounds, to assess the ability of oligomeric compounds to interfere with endogenous mir-21-mediated silencing of the pGL3-mir-21 sensor plasmid. The data are presented in Table 50 as percent untreated control (luciferase plasmid only, not treated with oligomeric compound) luciferase expression, normalized to pRL-CMV levels.

mir-21 pri-miRNA = mir-21 pri-miRNA expression in HeLa cells (real-time RT-PCR)

Row | Sequence | increase in expression levels of the let-7d pri-miRNA molecule (let-7d pri-miRNA) | expression levels of the mir-21 mature miRNA (mir-21 mature miRNA) | expression of the luciferase reporter, pGL3-mir-21 sensor (mir-21 miRNA; HeLa, 10 nM or 50 nM) | expression of the luciferase reporter, pGL3-mir-21 sensor, dose response (mir-21 miRNA; HeLa, 1.9, 5.5, 16.7 and 50 nM) | increase in levels of the mir-21 pri-miRNA molecule (mir-21 pri-miRNA; HeLa, 100 nM) | levels of the mir-21 pri-miRNA molecule (mir-21 pri-miRNA; HeLa, 100 nM) | mir-21 pri-miRNA levels, dose response (mir-21 pri-miRNA; HeLa, 25, 50, 100 and 200 nM)
1 | ACTATGCAACCTACTACCTCT (chemistry not given here) [ISIS 327926, uniform 2′-MOE PS; targets let-7d] | approximately 1.7 fold | – | – | – | – | – | –
2 | TCAACATCAGTCTGATAAGCTA (chemistry not given here) [ISIS 327917, uniform 2′-MOE PS; targets mir-21] | – | 50 % of those of untreated control cells | de-repressed the expression of the luciferase reporter | de-repressed the expression of the luciferase reporter, in a dose-dependent fashion | approximately 2 fold | stimulate an increase in levels of the mir-21 pri-miRNA molecule | dose-responsive induction of mir-21 pri-miRNA levels
